Experimental data reported in patent publication US4254049A, “Substituted phenyl-2-cyano-2-alkenoic acid esters” (American Cyanamid Company, priority 1979, dated 1981).

Tests used:
[1] = system: adjuvant induced arthritis; test: Adjuvant induced arthritis in rats (chronic inflammation accompanied by joint destruction); assay type: in vivo, rat (Royal Hart, Wistar strain); conditions: oral; for Dead/Treated At 21 Days: once daily days 0 through 13; for % Inhibition of Swelling (Primary lesion), Day 14: * significantly different from adjuvant controls
Method: Groups of three Royal Hart, Wistar strain rats weighing 200±10 grams each were injected intradermally in the right hind paw with Freund's adjuvant (dried human tubercle bacilli in a mineral oil vehicle) at a dose of 2 mg./kg. of body weight. Test compound was administered orally in a 1.5% starch vehicle at various doses once daily on days 0 through 13 post challenge. Control rats were treated in a similar manner, but given only starch vehicle. On the 14th and 21st day post challenge the diameter of the injected paw (primary lesion) was measured by micrometer caliper. The volume of inflamed paws were estimated from these measurements and the results are expressed as percent inhibition of swelling as compared to controls. At the same time, the other inflamed sites, such as ears, paws and tail (secondary lesions) were observed and each rat was graded as to degree of inflammation and swelling present. The grading is based on a scale of 0 to 24, where 0 represents a complete absence of induced arthritic nodules and 24 represents the maximum degree of inflammation. The mean grade for each treated group is calculated and the effects of each compound are expressed as percent inhibition of the control grade. Table I records the results of tests conducted with typical compounds of the present invention. These compounds appear to suppress the progression of the arthritis and associated joint deterioration.

[2] = system: articular cartilage breakdown by arthritic synovial tissue; test: Synovium-cartilage test (hexoseamine/hydroxyproline ratio of cartilage cultured with arthritic synovium); assay type: cell-based, rabbit (New Zealand); conditions: Oryctolagus cuniculus; 10 mcg./ml.; 48 hours at 37° C.; mean of 3 or 4 tests; active if average greater than 50%; read-out: Mean % Inhibition (suppression of cartilage breakdown)
Method: The compounds of the invention have been tested by the synovium-cartilage test which is a modification of the method described by Dumonde, D. C. and Glynn, L. E., The Production of Arthritis in Rabbits by an Immunological Reaction to Fibrin, Brit. J. Exp. Pathol., 43, 373 (1962).
Male, New Zealand rabbits, weighing 1.6-3.0 kg. were used. The rabbits were housed in individual cages and given food and water ad libitum. The rabbits were sensitized to bovine serum albumin (BSA) by injection of 20 mg./kg. BSA in complete Freund's adjuvant. The emulsion was injected subcutaneously into multiple sites on the back. Total injection volume equaled one […]. of body weight. Between 18 and 21 days following immunization, the rabbits were challenged with an intraarticular injection of 5 mg. BSA into the right knee joint. Unanesthetized animals were restrained on their backs, and a 20-gauge, one-inch needle, with a 5 ml. syringe, was introduced into the joint and synovial fluid aspirated to determine that the synovium had been penetrated. The needle was then left in place for injection of the antigen. A 0.5 ml. portion of 10 mg./ml. BSA in sterile saline was injected into the synovial sac. The rabbits received an additional five intraarticular injections of 5 mg. BSA into the right knee at intervals of 12-16 days. Following the sixth injection the rabbits were sacrificed by an intracardiac injection of 5 ml. of a saturated solution of potassium chloride. The right knee was shaved. A longitudinal incision was made over the patellar ligament and the skin reflected under sterile conditions. The patellar ligament was cut transversely and reflected. Fascia and capsular tissue were trimmed from the lateral and medial aspects of the knee exposing the synovial membrane. The membrane was grasped with forceps, stretched laterally and then excised in a single piece on each side of the knee. The infrapatellar fat pad was removed and the joint space widened by cutting the anterior attachments of the menisci and severing the collateral cruciate ligaments. The femur and tibia were then separated and the menisci excised along with sufficient amounts of synovial tissue from the popliteal area adhering to the menisci. The tissues were immediately placed in a sterile Petri dish containing tissue culture medium composed of MEM (Earle's salts) without sodium bicarbonate,with 25 mM Hepes buffer, pH adjusted to 7.34-7.37, and antibiotics (streptomycin and neomycin, 100 units/ml.). Ten percent normal rabbit serum (NRS) was added. The tissues were rinsed three times in fresh medium plus 10% NRS, then cut into pieces of 20-30 mg.
Articular cartilage was obtained from the knees of normal, young rabbits, weighing 1.0 to 1.5 kg. The knees were shaved, the rabbits sacrificed and the joint exposed as described above. […]

[3] = system: arthritic paw swelling; conditions: result in words; cited from earlier work

C/C(O)=C(\C#N)C(=O)Oc1ccc(Cl)cc1 [2-Cyano-3-hydroxycrotonic acid, p-chlorophenyl ester]
Dead/Treated At 21 Days ([1]; 25 mg./kg. body weight): 2/18
Mean Weight Gain, Day 14 ([1]; 25 mg./kg.): 60 grams
% Inhibition of Swelling (Primary lesion), Day 14 ([1]; 25 mg./kg.): 45%
% Inhibition of Swelling (Primary lesion), Day 21 ([1]; 25 mg./kg.): 0%
Mean Weight Gain, Day 21 ([1]; 25 mg./kg.): 46 grams

C/C(O)=C(\C#N)C(=O)Oc1ccc(C)cc1 [2-Cyano-3-hydroxycrotonic acid, p-tolyl ester]
inhibition at 10 µg/mL [2]: 50.3%

COc1ccccc1OC(=O)/C(C#N)=C(/C)O [2-Cyano-3-hydroxycrotonic acid, o-methoxyphenyl ester]
inhibition at 10 µg/mL [2]: 49.3%

COc1ccc2c(c1)c(CC(=O)O)c(C)n2C(=O)c1ccc(Cl)cc1 [indomethacin]
arthritic paw swelling [3]: inhibit arthritic paw swelling
joint and bone deterioration [3]: prevent joint and bone deterioration

C/C(O)=C(\C#N)C(=O)Oc1ccccc1F [2-Cyano-3-hydroxycrotonic acid, o-fluorophenyl ester]
inhibition at 10 µg/mL [2]: 52.3%

C/C(O)=C(\C#N)C(=O)Oc1ccccc1Cl [2-Cyano-3-hydroxycrotonic acid, o-chlorophenyl ester]
Dead/Treated At 21 Days ([1]; 50 mg./kg. body weight): 0/9
Mean Weight Gain, Day 14 ([1]; 50 mg./kg.): 25 grams
% Inhibition of Swelling (Primary lesion), Day 14 ([1]; 50 mg./kg.): 57%
% Inhibition of Swelling (Primary lesion), Day 21 ([1]; 50 mg./kg.): 35%
Mean Weight Gain, Day 21 ([1]; 50 mg./kg.): 29 grams

COc1ccc(OC(=O)/C(C#N)=C(/C)O)cc1 [2-Cyano-3-hydroxycrotonic acid, p-methoxyphenyl ester]
inhibition at 10 µg/mL [2]: 58.4%

C/C(O)=C(\C#N)C(=O)Oc1cccc(Cl)c1Cl [2-Cyano-3-hydroxycrotonic acid, 2,3-dichlorophenyl ester]
Dead/Treated At 21 Days ([1]; 50 mg./kg. body weight): 11/24
Mean Weight Gain, Day 14 ([1]; 50 mg./kg.): 36 grams
% Inhibition of Swelling (Primary lesion), Day 14 ([1]; 50 mg./kg.): 41%
% Inhibition of Swelling (Primary lesion), Day 21 ([1]; 50 mg./kg.): 0%
Mean Weight Gain, Day 21 ([1]; 50 mg./kg.): 32 grams
